From ChEMBL document CHEMBL1150036, “Functionalized aliphatic P2/P2 analogs of HIV-1 protease inhibitor DMP323” (Bioorg Med Chem Lett, 1997)
pKi: −log10 of the molar value. Active and inactive are the calls of the source. The calls are words filed in the database; no cut-off is given here.

Experiments:
[1] = target: Human immunodeficiency virus type 1 protease (Human immunodeficiency virus 1, UniProt Q72874); assay: Inhibitory activity against HIV-1 protease
MT2 = assay: Antiviral activity assessed in a cell based assay measuring the inhibition of viral RNA production in HIV-1-infected MT-2 cells at concentrations of up to 50 ug/mL; not active; assay type: functional; details: Homo sapiens
[2] = test system: Human immunodeficiency virus 1; assay: Inhibition of viral RNA production in HIV-1-infected MT-2 cells.; assay type: functional; details: Human immunodeficiency virus 1, MT2

Row | Compound | pKi [1] | IC90 (MT2) | IC90 [2] [nM]
1 | O=C(O)CCCCCN1C(=O)N(CCCCCC(=O)O)[C@H](Cc2ccccc2)[C@H](O)[C@@H](O)[C@H]1Cc1ccccc1 | 9.62 | inactive | –
2 | O=C1N(CCCCCCCCO)[C@H](Cc2ccccc2)[C@H](O)[C@@H](O)[C@@H](Cc2ccccc2)N1CCCCCCCCO | 6.30 | – | 17200
3 | O=C(NCCCCCN1C(=O)N(CCCCCNC(=O)c2cccc(F)c2)[C@H](Cc2ccccc2)[C@H](O)[C@@H](O)[C@H]1Cc1ccccc1)c1cccc(F)c1 | 7.85 | – | 8770
4 | O=C1N(CCCCCCCO)[C@H](Cc2ccccc2)[C@H](O)[C@@H](O)[C@@H](Cc2ccccc2)N1CCCCCCCO | 7.47 | – | 9010
5 | O=C1N(CCCCCO)[C@H](Cc2ccccc2)[C@H](O)[C@@H](O)[C@@H](Cc2ccccc2)N1Cc1cccc(CO)c1 | 10.24 | – | 76
6 | O=C1N(CCCCCO)[C@H](Cc2ccccc2)[C@H](O)[C@@H](O)[C@@H](Cc2ccccc2)N1Cc1ccc2ccccc2c1 | 9.62 | – | 199
7 | O=C(NCCCCCN1C(=O)N(CCCCCNC(=O)c2ccncc2)[C@H](Cc2ccccc2)[C@H](O)[C@@H](O)[C@H]1Cc1ccccc1)c1ccncc1 | 7.80 | – | 9900
8 | O=C1N(CCCCCO)[C@H](Cc2ccccc2)[C@H](O)[C@@H](O)[C@@H](Cc2ccccc2)N1Cc1ccc(CO)cc1 | 10.00 | – | 108
9 | COC(=O)CCCCCN1C(=O)N(CCCCCC(=O)OC)[C@H](Cc2ccccc2)[C@H](O)[C@@H](O)[C@H]1Cc1ccccc1 | 7.54 | – | 30900
10 | O=C1N(CCCCCO)[C@H](Cc2ccccc2)[C@H](O)[C@@H](O)[C@@H](Cc2ccccc2)N1CC1CC1 | 9.00 | – | 814
11 | O=C(NCCCCCN1C(=O)N(CCCCCNC(=O)c2ccc(F)cc2)[C@H](Cc2ccccc2)[C@H](O)[C@@H](O)[C@H]1Cc1ccccc1)c1ccc(F)cc1 | 7.74 | inactive | –
12 | O=C1N(CCCO)[C@H](Cc2ccccc2)[C@H](O)[C@@H](O)[C@@H](Cc2ccccc2)N1CCCO | 7.29 | inactive | –
13 | NCCCCCN1C(=O)N(CCCCCN)[C@H](Cc2ccccc2)[C@H](O)[C@@H](O)[C@H]1Cc1ccccc1 | 5.90 | inactive | –
14 | O=C1N(CCCCCO)[C@H](Cc2ccccc2)[C@H](O)[C@@H](O)[C@@H](Cc2ccccc2)N1Cc1ccccc1 | 9.17 | – | 398
15 | CCOC(=O)c1cccc(CN2C(=O)N(CCCCCO)[C@H](Cc3ccccc3)[C@H](O)[C@@H](O)[C@H]2Cc2ccccc2)c1 | 9.14 | – | 365
16 | CC(=O)NCCCCCN1C(=O)N(CCCCCNC(C)=O)[C@H](Cc2ccccc2)[C@H](O)[C@@H](O)[C@H]1Cc1ccccc1 | 6.46 | inactive | –
17 | COCCCCCN1C(=O)N(CCCCCOC)[C@H](Cc2ccccc2)[C@H](O)[C@@H](O)[C@H]1Cc1ccccc1 | 7.02 | inactive | –
18 | O=C1N(CCCCCCO)[C@H](Cc2ccccc2)[C@H](O)[C@@H](O)[C@@H](Cc2ccccc2)N1Cc1ccc2ccccc2c1 | 8.77 | – | 264
19 | O=C1N(CCCCCCO)[C@H](Cc2ccccc2)[C@H](O)[C@@H](O)[C@@H](Cc2ccccc2)N1CCCCCCO | 9.33 | – | 1510
20 | O=C1N(CCCCO)[C@H](Cc2ccccc2)[C@H](O)[C@@H](O)[C@@H](Cc2ccccc2)N1CCCCO | 7.38 | – | 22700
21 | O=C(Cc1cccnc1)NCCCCCN1C(=O)N(CCCCCNC(=O)Cc2cccnc2)[C@H](Cc2ccccc2)[C@H](O)[C@@H](O)[C@H]1Cc1ccccc1 | 8.05 | – | 3130
22 | O=C(NCCCCCN1C(=O)N(CCCCCNC(=O)c2ccccc2)[C@H](Cc2ccccc2)[C@H](O)[C@@H](O)[C@H]1Cc1ccccc1)c1ccccc1 | 7.23 | inactive | –
23 | CS(=O)(=O)NCCCCCN1C(=O)N(CCCCCNS(C)(=O)=O)[C@H](Cc2ccccc2)[C@H](O)[C@@H](O)[C@H]1Cc1ccccc1 | 6.57 | inactive | –
24 | CNC(=O)NCCCCCN1C(=O)N(CCCCCNC(=O)NC)[C@H](Cc2ccccc2)[C@H](O)[C@@H](O)[C@H]1Cc1ccccc1 | 6.57 | inactive | –
25 | O=C1N(CCCCCO)[C@H](Cc2ccccc2)[C@H](O)[C@@H](O)[C@@H](Cc2ccccc2)N1CCCCCO | 8.85 | – | 953
26 | O=C1N(CCCCCO)[C@H](Cc2ccccc2)[C@H](O)[C@@H](O)[C@@H](Cc2ccccc2)N1Cc1cccc(O)c1 | 10.09 | – | 36
27 | NCCCCN1C(=O)N(CCCCN)[C@H](Cc2ccccc2)[C@H](O)[C@@H](O)[C@H]1Cc1ccccc1 | 5.90 | inactive | –
